{
  "source": "patent US20230026163A1",
  "about": "“ANTICANCER COMPOUND AND MEDICAL USE THEREOF” (ASCENTAWITS PHARMACEUTICALS, LTD., priority 2019, published 2023)",
  "key": {"[1]": {"test": "Plasma stability, dog", "format": "in vitro ADME", "procedure": "(§1) Frozen plasma was melted immediately in a water bath at 37° C. […] The supernatants were collected into new tubes, respectively. pH values of the plasma were checked and recorded. Note: a, no more 2 times melted plasma was used since the sample was received; b, the plasma in pH 7 to pH 8 was used.\n(§2) 1 mM of working solution of the test compounds and the control compound, propantheline, were prepared in DMSO. 1 mM of working solution of the control compound in […] was prepared in acetonitrile. 4 μL of the working solutions were added to 796 μL of pre-incubated plasma respectively to achieve a final concentration of 5 μM. The final concentration of solvent was 0.5%.\n(§3) […] The test was performed in duplicate. […] 50 μL of the labeled plasma was added to new tubes containing 300 μL of the quench solution of room temperature, i.e., the sample with a preparation time of 0. The samples were vortexed to mix for 5 minutes. […] 100 μL of the supernatant was transferred to new plates."}, "[2]": {"tested_on": "UV41 cell line", "test": "Cytotoxicity on UV41 cell line with DNA repair gene mutation (2 hours exposure, AlamarBlue)", "format": "cell-based, Chinese hamster", "conditions": "Cricetulus griseus; UV41, 2 hours exposure, then 70 hours, normoxic", "procedure": "UV41 cell line is a derivative of CHO-AA8 cell line, derived from the UV-sensitive line of AA8. The cell line is a cell line with damaged homologous recombination DNA repair enzymes and damaged nucleotide excision repair enzymes caused by mutations in ERCC4/XPF gene of DNA.\nSpecifically, the exponentially growing cells were seeded in 96-well plates at a density of 4×10^3 cells/well and incubated at 37° C., in 5% CO2, 95% air, and 100% relative humidity. Next, 24 hours later, the test compounds were added. The test compounds were dissolved in 100% DMSO at 200 times the desired final test concentration. Upon addition of the test compounds, the test compounds were further diluted with the complete medium to 4 times the desired final concentration. Aliquots of 50 μL of the compounds at specific concentrations were added to the microwells containing 150 μL of medium to obtain the final compound concentrations as reported. After the test compounds were added, the plates were incubated for an addition 2 hours at 37° C., in 5% CO2, 95% air, and 100% relative humidity. Then, the compounds were washed off, and fresh medium was added to the plates. The plates were incubated for an addition 70 hours at 37° C., in 5% CO2, 95% air, and 100% relative humidity. At the end of this incubation, AlamarBlue reagent was used to quantify viable cells."}, "[3]": {"test": "Plasma stability, human", "format": "in vitro ADME", "conditions": "5 μM, 37° C., after 30 minutes", "procedure": "as §1, §2\nAliquots of 50 μL of labelled plasma were transferred to new tubes and incubated in a water bath at 37° C. at approximately 60 rpm for 2 hours. The test was performed in duplicate. […] 50 μL of the labeled plasma was added to new tubes containing 300 μL of the quench solution of room temperature, i.e., the sample with a preparation time of 0. The samples were vortexed to mix for 5 minutes. […] 100 μL of the supernatant was transferred to new plates."}, "[4]": {"tested_on": "H460 non-small cell lung cancer", "test": "Cytotoxicity test of human tumor cell line in vitro (CTG, 72 hours)", "format": "cell-based", "conditions": "Homo sapiens, NCI-H460; H460, 72 hours exposure", "procedure": "IC50 values were obtained by the following methods. The cancer cells were exposed to various concentrations of compounds for 72 hours. Following by washing steps, fresh medium was added to allow the growth of the cancer cells. The cancer cells were stained to obtain cell viability. Then, comparisons were made with the medium-only control.\nSpecifically, the exponentially growing cells were seeded in 96-well plates at a density of 2×10^3 cells/well, and 100 μL/well. The cells were incubated for 24 hours at 37° C., in 5% CO2, in 95% air, and 100% relative humidity. Next, 99 μL of culture medium was added. The compounds were dissolved in 100% DMSO at 200 times the desired final test concentration. Upon addition of compounds, the compounds were further diluted to 4 times the desired final concentration with a complete medium. Aliquots of 1 μL of compounds at specific concentration were added to the micro-wells containing 199 μL of medium to obtain the final compound concentrations as reported. After the compounds were added, the plates were incubated for an addition 72 hours at 37° C., in 5% CO2, in 95% air, and 100% relative humidity.\nThe plates to be test containing the cells were equilibrated at room temperature for 30 minutes, and 100 μL of medium per well was discarded. 100 μL of CTG reagent (CelltiterGlo Kit) was added to each well. The plates were placed in a fast-shaker to shake for 2 minutes, and placed at room temperature for 30 minutes in the dark. Chemoluminescence signal values were read with Envision instrument."}, "[5]": {"tested_on": "AA8", "test": "Cytotoxicity on cell lines of different species: AA8", "format": "cell-based"}, "[6]": {"test": "Plasma stability, mouse", "format": "in vitro ADME", "procedure": "as §1, §2, §3"}, "[7]": {"test": "Plasma stability, rat", "format": "in vitro ADME", "procedure": "as §1, §2, §3"}, "[8]": {"test": "Hepatomicrosome stability, human", "conditions": "for Remaining percentage after 30 minutes: Human, 2 μM", "procedure": "1a) With NADPH: 10 μL of 20 mg/mL of hepatomicrosome and 40 μL of 10 mM of NADPH were added to medium. The final concentrations of hepatomicrosome and NADPH were 0.5 mg/mL and 1 mM, respectively.\n1b) Without NADPH: 10 μL of 20 mg/mL hepatomicrosome and 40 μL of ultra-pure H2O were added to medium. The final concentration of hepatomicrosome was 0.5 mg/mL.\n3) 3) Aliquots of 50 μL from the reaction solutions at 0 minute and 30 minutes were taken. The reaction solutions were stopped by adding 4 volumes of cold acetonitrile and 4 internal standards (IS internal standard, 100 nM of Alprazolam, 200 nM of caffeine, 200 nM of Labetalol, and 2 μM of Ketoprofen) to stop the reaction solution. The samples were centrifuged at 3,220 g for 40 minutes. Aliquots of 100 μL of the supernatants were mixed with 100 μL of ultra-pure H2O. Then, the mixtures were used for LC-MS/MS analysis. All experiments were performed in duplicate. The test results were as follow."}},
  "data": [
    {"smiles": "O=[N+]([O-])c1ccc(C(OP(=O)(N2CC2)N2CC2)C(F)(F)F)c2ccccc12", "note": "(centres unmarked) [Compound 01]", "values": [
      {"measurement": "Remaining percentage", "setting": "[1]; Dog plasma, 5 μM, 37° C., after 30 minutes", "result": 85.04, "unit": "%"},
      {"measurement": "Stability in plasma (conclusion)", "setting": "[1]; dog", "result": "relatively stable"},
      {"measurement": "IC50", "setting": "[2]", "result": 340, "unit": "nM"},
      {"measurement": "Remaining percentage", "setting": "[3]", "result": 68.68, "unit": "%"},
      {"measurement": "IC50", "setting": "[4]", "result": 128, "unit": "nM"},
      {"measurement": "IC50", "setting": "[5]; CHO-AA8, 72 h, AA8, Rat, exposure time: 3 days", "result": 11000, "unit": "nM"},
      {"measurement": "Multiple: Rat/Human", "setting": "[5]; IC50 AA8 / IC50 H460", "result": 110},
      {"measurement": "Remaining percentage", "setting": "[6]; Mouse plasma, 5 μM, 37° C., after 30 minutes", "result": 55.07, "unit": "%"},
      {"measurement": "Stability in plasma (conclusion)", "setting": "[6]; mouse", "result": "relatively unstable"},
      {"measurement": "Remaining percentage", "setting": "[7]; Rat plasma, 5 μM, 37° C., after 30 minutes", "result": 52.11, "unit": "%"},
      {"measurement": "Stability in plasma (conclusion)", "setting": "[7]; rat", "result": "relatively unstable"},
      {"measurement": "Remaining percentage after 30 minutes", "setting": "[8]; with NADPH", "result": 96.39, "unit": "%"},
      {"measurement": "Remaining percentage after 30 minutes", "setting": "[8]; without NADPH", "result": 82.15, "unit": "%"},
      {"measurement": "Stability in hepatomicrosomes (conclusion)", "setting": "[8]; human", "result": "relatively stable"}
    ]}
  ]
}
